Experimental data taken from paper PMC8226722, “Comparison of Solution Chemical Properties and Biological Activity of Ruthenium Complexes of Selected β-Diketone, 8-Hydroxyquinoline and Pyrithione Ligands” (Pharmaceuticals, 2021).

Test system: Human herpes simplex virus-2 (HSV-2)
Test: Antiviral activity in Vero cells, direct qPCR
Format: cell-based
Procedure: Then Vero cells were infected with HSV-2 (at MOI 0.2) and were treated with the complexes for 24 h. After 24 h post infection, the cells were lysed and the virus yield reducing effect of the compounds was evaluated by comparing the yield to that seen on untreated Vero cells. The HSV-2 DNA concentration was measured by direct qPCR.
Human herpes simplex virus-2 (HSV-2) strain was (gift from Dr. Ilona Mucsi, University of Szeged, Szeged, Hungary) grown in Vero (ATCC) cells and the infectivity was measured by using the plaque titration method. The virus titer was expressed in plaque forming units (PFU).
The plates were incubated for at 37 °C, 5% CO2 for 24 h. The plates were evaluated with quantitative PCR.
At the end of the infection (24 h for HSV-2, 48 h for C. trachomatis) the supernatants of the cells were removed and the cells were washed with PBS twice, and finally 100 μL in sucrose-phosphate-glutamic acid buffer (SPG) was measured into the wells, and the cells were subjected to two freeze-thaw cycles. The mixed cell lysates were used as a template in the qPCR as described previously. Briefly, qPCR was performed with the 5× HOT FIREPol®EvaGreen®qPCR Supermix (Solis Solis BioDyne, Tartu, Estonia) and C. trachomatis pykF gene specific primer pair in a Bio-Rad CFX96 real time PCR system. The pykF primer sequences were the following: 5′-[…]-3′, 5′-[…]-3′. For each sample the cycle threshold (Ct) number corresponding to the cycle where the amplification curve crossed the base line was determined. For the quantitative measurement of HSV-2 growth a similar qPCR method was used as was applied for C. trachomatis. The HSV-2 gD2 gene specific primer pair (gD2-F: 5′-[…]-3′, gD2-R 5′-[…]-3′ was used with a 69 °C annealing-extension temperature.

Structure (SMILES): Cc1ccc(C(C)C)cc1.O=C(C=C([O-])C(F)(F)F)c1ccc(Cl)cc1.[Cl-].[Ru+2] [complex 7]
- HSV-2 growth difference (HSV-2 MOI 0.2, 24 h): ca. 237 fold
- qPCR cycles difference (dCT) (HSV-2 MOI 0.2, 24 h): ~ 7.89 qPCR cycles
- IC50 (MOI 0.2, 24 h, qPCR, read-out: IC50 HSV-2 growth): ~25 µM
- IC90 (MOI 0.2, 24 h, qPCR, read-out: IC90 HSV-2 growth): 50 to 100 µM
